The values that follow come from ChEMBL document CHEMBL1128835, “The antitumor activity of novel pyrazoloquinoline derivatives” (Bioorg Med Chem Lett, 1995).

The species entered for test [1] is Mus musculus. Kind of test: Tested for tumor growth inhibition in mice. In kind it is functional.
Another test concerns P388. The experiment in a line: In vitro cytotoxicity was evaluated following 1 hour transient exposure of P388 mouse leukemia cells to the compound. In kind it is functional, cell-based. Particulars: P388, 1 h.
A further test deals with DNA topoisomerase II (Homo sapiens, UniProt P11388+Q02880). Kind of test: Compound was tested for topoisomerase II inhibition in purified HeLa cells by SDS/K+ precipitation method. In kind it is cell-based.
Test [2] relates to Mus musculus. The experiment in a line: In vivo antitumor activity was measured as the maximum dose tolerated by murine when administered intravenously. In kind it is functional.
In test [3] the test system is Mus musculus. The experiment in a line: In vivo antitumor activity was measured as the maximum dose tolerated by murine when administered subcutaneously. In kind it is functional.

In the test listed under Mus musculus [1], `Cc1cc(-c2c(F)cc3c4nn(C5CCN(C)CC5)c(=O)c-4cn(C4CC4)c3c2F)cc(C)n1` yielded a T/C of 24%. Besides, the IC50 in the test on P388 amounted to 94 nM. Further, the concentration giving a half-maximal response (EC50) on DNA topoisomerase II came out at 3200 nM. The molecule further came in with an MTD in the test on Mus musculus [2] of 128 mg/kg.

For the molecule `CC(=O)N[C@H]1CC[C@@H](n2nc3c4cc(F)c(-c5cc(C)nc(C)c5)c(F)c4n(C4CC4)cc-3c2=O)CC1`, the IC50 in the test on P388 was 1300 nM. On DNA topoisomerase II, this molecule had an EC50 of 7400 nM.

In turn, `Cc1cc(-c2c(F)cc3c4nn(CCN(C)C)c(=O)c-4cn(C4CC4)c3c2F)cc(C)n1` returned a T/C in the test filed under Mus musculus [1] of 8%. The same molecule displayed an IC50 in the test on P388 of 260 nM. The molecule further gave an EC50 at DNA topoisomerase II of 2600 nM. This molecule gave an MTD in the test on Mus musculus [2] of 34 mg/kg.

Turning to `Cc1cc(-c2c(F)cc3c4nn(C5CCCCC5)c(=O)c-4cn(C4CC4)c3c2F)cc(C)n1`, the T/C in the test listed under Mus musculus [1] amounted to 18%. In the test with P388, this molecule yielded an IC50 of 680 nM. Moreover, the half-maximal effective concentration (EC50) on DNA topoisomerase II was 900 nM. In the test with Mus musculus [2], this molecule returned an MTD of 140 mg/kg.

The molecule `Cc1cc(-c2c(F)cc3c4nn([C@H]5CC[C@H](N(C)C)CC5)c(=O)c-4cn(C4CC4)c3c2F)cc(C)n1` had a T/C in the test filed under Mus musculus [1] of 2%. In addition, 260 nM corresponded to half-maximal inhibition with P388 (IC50). The same molecule came in with an EC50 on DNA topoisomerase II of 4400 nM. In the test with Mus musculus [2], this molecule displayed an MTD of 390 mg/kg.

In turn, `Cc1cc(-c2c(F)cc3c4n[nH]c(=O)c-4cn(C4CC4)c3c2F)cc(C)n1` displayed a T/C in the test listed under Mus musculus [1] of more than 100%. The same molecule displayed an MTD in the test on Mus musculus [3] of 2500 mg/kg. In the test with P388, this molecule had an IC50 of 7900 nM. This molecule also returned an EC50 on DNA topoisomerase II of 11000 nM.

For `Cc1cc(-c2c(F)cc3c4nn(C5CCC(C)CC5)c(=O)c-4cn(C4CC4)c3c2F)cc(C)n1` (centres undefined), inhibition in the test on P388 was half-maximal at 1400 nM (IC50). The EC50 at DNA topoisomerase II was 3100 nM.

In the test filed under Mus musculus [1], `Cc1cc(-c2c(F)cc3c4nn(CCCN(C)C)c(=O)c-4cn(C4CC4)c3c2F)cc(C)n1` registered a T/C of 35%. In the test with P388, this molecule had an IC50 of 160 nM. For the same molecule, on DNA topoisomerase II, the EC50 was determined as 1700 nM. This molecule yielded an MTD with Mus musculus [2] of 64 mg/kg.

`Cc1cc(-c2c(F)cc3c4nn([C@H]5CC[C@@H](N)CC5)c(=O)c-4cn(C4CC4)c3c2F)cc(C)n1` registered a T/C in the test filed under Mus musculus [1] of 21%. Further, the IC50 in the test on P388 worked out at 440 nM. On DNA topoisomerase II, this molecule returned an EC50 of 500 nM. The same molecule gave an MTD in the test with Mus musculus [2] of 110 mg/kg.

Consider `Cc1cc(-c2c(F)cc3c4nn(C)c(=O)c-4cn(C4CC4)c3c2F)cc(C)n1`, for which it took 3100 nM to reach half-maximal inhibition in the test with P388 (IC50). Further, at DNA topoisomerase II, the EC50 was found to be 5900 nM.

In turn, `Cc1cc(-c2c(F)cc3c4nn(CCO)c(=O)c-4cn(C4CC4)c3c2F)cc(C)n1` yielded an IC50 with P388 of 2000 nM. The concentration for a half-maximal effect (EC50) at DNA topoisomerase II is 6400 nM.

Consider `CCOC(=O)Cn1nc2c3cc(F)c(-c4cc(C)nc(C)c4)c(F)c3n(C3CC3)cc-2c1=O`, for which inhibition in the test on P388 was half-maximal at 5100 nM (IC50). The same molecule registered a 50% effective concentration (EC50) on DNA topoisomerase II of 6100 nM.

In the test filed under Mus musculus [1], `Cc1cc(-c2c(F)cc3c4nn(CCNCCO)c(=O)c-4cn(C4CC4)c3c2F)cc(C)n1` had a T/C of 42%. This molecule yielded an IC50 in the test with P388 of 1300 nM. On DNA topoisomerase II, this molecule gave an EC50 of 3300 nM. The molecule further came in with an MTD in the test with Mus musculus [2] of 1410 mg/kg.

On to `Cc1cc(-c2c(F)cc3c4nn(CC(=O)O)c(=O)c-4cn(C4CC4)c3c2F)cc(C)n1`, for which, in the test with P388, the IC50 was more than 200000 nM. On DNA topoisomerase II, this molecule yielded an EC50 of 10000 nM.

Molecule `Cc1cc(-c2c(F)cc3c4nn(-c5ccccc5)c(=O)c-4cn(C4CC4)c3c2F)cc(C)n1` returned a T/C in the test listed under Mus musculus [1] of more than 100%. In addition, the MTD in the test on Mus musculus [3] was determined as 635 mg/kg. Also, the IC50 in the test on P388 worked out at 1800 nM.

Regarding `Cc1cc(-c2c(F)cc3c4nn([C@H]5CC[C@@H](N(C)C)CC5)c(=O)c-4cn(C4CC4)c3c2F)cc(C)n1`, in the test filed under Mus musculus [1], the T/C is recorded as 5%. For the same molecule, the IC50 with P388 is 67 nM. Moreover, at DNA topoisomerase II, the EC50 is 1700 nM. This molecule also gave an MTD in the test with Mus musculus [2] of 63 mg/kg.

Take `CC(=O)N[C@H]1CC[C@H](n2nc3c4cc(F)c(-c5cc(C)nc(C)c5)c(F)c4n(C4CC4)cc-3c2=O)CC1`: in the test on P388, inhibition was half-maximal at 1200 nM (IC50). For the same molecule, the EC50 on DNA topoisomerase II came out at 9800 nM.

As for `Cc1cc(-c2c(F)cc3c(=O)ccn(C4CC4)c3c2F)cc(C)n1`, the T/C in the test listed under Mus musculus [1] is reported as more than 100%. Moreover, the MTD in the test with Mus musculus [3] was determined as 1950 mg/kg. For the same molecule, the IC50 in the test with P388 was 15000 nM.

In the test with P388, `Cc1cc(-c2c(F)cc3c4nn(C5CCOCC5)c(=O)c-4cn(C4CC4)c3c2F)cc(C)n1` yielded an IC50 of 290 nM. At DNA topoisomerase II, this molecule had an EC50 of 1700 nM.

`Cc1cc(-c2c(F)cc3c4nn([C@H]5CC[C@H](N)CC5)c(=O)c-4cn(C4CC4)c3c2F)cc(C)n1` showed a T/C in the test listed under Mus musculus [1] of 42%. In the test on P388, inhibition was half-maximal at 1500 nM (IC50). In addition, the EC50 at DNA topoisomerase II was 4200 nM. Further, in the test on Mus musculus [2], the maximal tolerated dose (MTD) was 550 mg/kg.

`COc1cc(NS(C)(=O)=O)ccc1Nc1c2ccccc2nc2ccccc12` [AMSACRINE] came in with a T/C in the test listed under Mus musculus [1] of 0%. This molecule also gave an IC50 with P388 of 150 nM. Besides, in the test on Mus musculus [2], the MTD came to 48 mg/kg.

For the molecule `COc1cc([C@@H]2c3cc4c(cc3[C@@H](O[C@@H]3O[C@@H]5CO[C@@H](C)O[C@H]5[C@H](O)[C@H]3O)[C@H]3COC(=O)[C@H]23)OCO4)cc(OC)c1O` [ETOPOSIDE], in the test filed under Mus musculus [1], the T/C is 3%. The same molecule yielded an MTD in the test on Mus musculus [2] of 96 mg/kg.

With `Cc1cc(-c2c(F)cc3c(=O)c(C(=O)O)cn(C4CC4)c3c2F)cc(C)n1` [WIN-57294], in the test filed under Mus musculus [1], the T/C turned out to be 31%. In the test on Mus musculus [3], the maximum tolerated dose (MTD) is 600 mg/kg.

One may read the T/C as the result in the treated group divided by that in the control group, in per cent. The term IC50 denotes the concentration that inhibits the measured activity by half. For orientation: EC50 means the concentration that produces a half-maximal response. By MTD is commonly meant the largest dose that counted as tolerated.
